Reference: US9365830B2, “Agents and methods for inhibiting human pluripotent stem cell growth” (VIACYTE, INC., priority 2010, dated 2016)
Counter-ions that a name gives are not always drawn. Like-named read-outs stand apart in the source and are kept apart here.

Legend:
Format in all cases: cell-based, human
NPCs = experiment: Secondary screen, lowest effective dose on NPCs; settings: lowest concentration that elicited cytotoxicity, range 0.1 to 50 μM, read-out: ED NPC (lowest effective dose)
Description: In addition, the complete LOPAC1280™ collection was also screened for effects on neural progenitor cells (NPCs) that were derived from the hESCs. Neural progenitors were plated in serum-free MedII conditioned medium at 6×10^4 cells/well and fed daily. Two days after plating, 10 μM of each compound was added and the cells were cultured for an additional 2 days. […] Reduced crystal violet staining was indicative of lower proportions of NPCs. See circled wells in FIG. 7B. The left and right columns of the LOPAC1280™ plates from which the compounds were dispensed were empty and served as untreated controls. […] See Table 6 below listing the name and class of activity of each candidate compound identified in this screen (except chelerythrine chloride, which is listed in Table 5). ChCl was not included in the subsequent round of screening. Therefore only 40 compounds were tested further.
(§1) Using a range of different concentrations from 0.1 to 50 μM, the forty compounds in Table 6 were re-screened (secondary screen) using hESCS and NPCs. The effective dose (ED) was defined as the lowest concentration of a compound that elicited cytotoxicity during the secondary screen. […] The darker wells were indicative of the increased numbers or percentages of proliferating or growing pluripotent stem cells in the wells. In addition, these 40 compounds were screened on differentiating definitive endoderm (DE) cell cultures in 96-well plate impedance assays (described above) to determine which of these compounds were not cytotoxic to definitive endoderm cells at the lowest effective dose on either hESC or NPC. […] See “ACEA DE” column in Table 6.

hESCs = experiment: Secondary screen, lowest effective dose on hESCs; settings: lowest concentration that elicited cytotoxicity, range 0.1 to 50 μM, read-out: ED hESC (lowest effective dose)
Description: To expand the number of potential candidate hESC cytotoxic and inhibitory compounds, the complete LOPAC1280™ collection (containing 1,280 compounds) was screened. In the primary screen, cytotoxicity was tested on undifferentiated hESCs (about 3×10^4 BG01 cells) in 16 standard 96-well trays, in DC-HAIF defined medium on growth factor-reduced MATRIGEL™ diluted 1:200, which were fed daily (FIG. 7A). 10 μM of each compound was added to the hESCs one day after plating, and the cells were cultured for an additional 2 days. Plates were then fixed and stained for alkaline phosphatase (AP) to identify relative decreases in proliferation or growth of hESCs (as reduced AP staining), indicative of lower proportions of hESCs. See the circled wells in FIG. 7A.
as §1

[1] = tested on: differentiating definitive endoderm (DE) cell cultures; experiment: 96-well plate impedance assay (ACEA) on differentiating definitive endoderm at lowest effective dose; parameters: key: Viable: Compounds that did not appear to be cytotoxic toward differentiating DE cultures were marked as “viable”, meaning that the compound did not affect the survival, growth, proliferation or differentiation of the differentiated cells; settings: at the lowest effective dose on either hESC or NPC
Text: The impedance assay on the hESCs using the compounds in Table 4 above gave greater than twenty (20) hits. However, the ideal candidate compound of the present invention should not only be inhibitory or cytotoxic to human pluripotent stem cells, such as hESCs or hIPSCs, but should at the same time have no effect on cell viability of differentiated or differentiating cell populations including Stage 1, 2, 3, 4 and 5 type cells cultures (definitive endoderm, foregut endoderm, posterior foregut, pancreatic endoderm and endocrine cells, respectively). […] Approximately 3×10^4 hES cells were plated per well and grown for 24 hrs in DC-HAIF defined medium (i.e. StemPro® hESC SFM medium (Life Technologies, Carlsbad, Calif.). Stage 1 or definitive endoderm differentiation was then induced by changing the medium and culturing in RPMI, 100 ng/mL Activin A, and 10 ng/mL of FGF2. […] of GSK-3 beta Inhibitor 15 (Calbiochem #361558) as added to the culture for the first 24 hours of differentiation only. 10 μM of each of the candidate compounds were added about 48 hours or 2 days after differentiation was induced (see FIGS. 3 C & D, large arrowhead), and the cells were cultured for an additional 2 days.
as §1

Compound	minimal effective concentration (NPCs) [µM]	minimal effective concentration (hESCs) [µM]	minimal effective concentration (NPCs; Homo sapiens, 48 h) [µM]	minimal effective concentration (hESCs; Homo sapiens) [µM]	ACEA DE [1]
COc1cc2c(cc1O)CC[C@@H]1[C@@H]2CC[C@]2(C)[C@@H](O)CC[C@@H]12 [2-methoxyestradiol]	1	10			
Oc1cc(-c2ccccc2)nc2nc(Cl)ccc12 [7-Chloro-4-hydroxy-2-phenyl-1,8-naphthyridine]			5	5	Viable
CC[n+]1c(/C=C/C=C2/N(C)c3ccccc3C2(C)C)sc2ccccc21.[I-] [AC-93253 iodide]	<0.1	5			
N [Ammonium]	>50	10			Viable
COc1cc(NS(C)(=O)=O)ccc1Nc1c2ccccc2nc2ccccc12 [Amsacrine hydrochloride]			0.1	1	
C[C@H]1CCC/C=C/[C@@H]2C[C@H](O)C[C@H]2[C@H](O)/C=C/C(=O)O1 [Brefeldin A from Penicillium]	<0.1	<0.1			
O=C(/C=C/c1ccc(O)c(O)c1)OCCc1ccccc1 [Caffeic acid phenethyl ester]			5	< 0.1	Viable
CNc1ccc2oc(C[C@H]3O[C@@]4(CC[C@H]3C)O[C@H]([C@H](C)C(=O)c3ccc[nH]3)[C@H](C)C[C@H]4C)nc2c1C(=O)O [Calcimycin]			< 0.1	1	
Clc1ccc(C(c2ccc(Cl)cc2)n2cc[n+](CC(OCc3ccc(Cl)cc3Cl)c3ccc(Cl)cc3Cl)c2)cc1 (stereo not drawn) [Calmidazolium chloride]			5	5	Viable
Oc1cc2c(cc1O)CN(C(=S)NCCc1ccc(Cl)cc1)CCC2 [Capsazepine]			25	5	Viable
Cc1cc(N)c2ccccc2[n+]1CCCCCCCCCC[n+]1c(C)cc(N)c2ccccc21 [Dequalinium chloride hydrate]			5	5	
C[C@@H]1O[C@@H](O[C@H]2C[C@@H](O)[C@]3(CO)[C@H]4[C@H](O)C[C@]5(C)[C@@H]([C@@H]6COC(=O)C6)CC[C@]5(O)[C@@H]4CC[C@]3(O)C2)[C@H](O)[C@H](O)[C@H]1O [Dihydroouabain]	<0.1	1			
c1ccc2c(c1)[I+]c1ccccc1-2 [Diphenyleneiodonium chloride]			< 0.1	0.1	
O=c1[nH]c2ccccc2n1CCCN1CCC(n2c(=O)[nH]c3cc(Cl)ccc32)CC1 [Domperidone]			0.1	25	Viable
CC[C@H]1CN2CCc3cc(OC)c(OC)cc3[C@@H]2C[C@@H]1C[C@H]1NCCc2cc(OC)c(OC)cc21 [Emetine dihydrochloride hydrate]			0.1	< 0.1	
CNC(=O)[C@H]1O[C@@H](n2cnc3c(NCc4cccc(I)c4)ncnc32)[C@H](O)[C@@H]1O [IB-MECA]	>50	50			
Ic1ccccc1CNC1C2CCN(CC2)C1C(c1ccccc1)c1ccccc1.O=C(O)C(=O)O [L-703,606 oxalate]	>50	25			
COC(=O)C1=C(C)NC(C)=C(C(=O)OC(C)(C)CN(C)CCC(c2ccccc2)c2ccccc2)C1c1cccc([N+](=O)[O-])c1 (stereo not drawn) [Lercanidipine hydrochloride]			10	10	

Compound	minimal effective concentration (NPCs) [µM]	minimal effective concentration (hESCs) [µM]	minimal effective concentration (NPCs; Homo sapiens, 48 h) [µM]	minimal effective concentration (hESCs; Homo sapiens) [µM]	ACEA DE [1]
CC[N+](CC)(CC)CCOc1ccc(/C=C/c2ccccc2)cc1 [MG 624]			5	0.1	Viable
COCC(=O)O[C@]1(CCN(C)CCCc2nc3ccccc3[nH]2)CCc2cc(F)ccc2[C@@H]1C(C)C [Mibefradil dihydrochloride]			25	25	
CCCCCCCC/C=C\CCCCCCCC(=O)NCCc1ccc(O)c(O)c1 [N-Oleoyldopamine]			1	5	Viable
CC(C)[C@H]1c2ccc(F)cc2CC[C@@]1(CCN(C)CCCc1nc2ccccc2[nH]1)OC(=O)C1CC1 [NNC 55-0396]	5	25			
C[C@@H]1O[C@@H](O[C@H]2C[C@@H](O)[C@]3(CO)[C@H]4[C@H](O)C[C@]5(C)[C@@H](C6=CC(=O)OC6)CC[C@]5(O)[C@@H]4CC[C@]3(O)C2)[C@H](O)[C@H](O)[C@H]1O [Ouabain]			< 0.1	< 0.1	
Nc1ccc(CCN2CCN(c3cccc(C(F)(F)F)c3)CC2)cc1 [PAPP]	>50	25			
N=C(N)c1ccc(OCCCCCOc2ccc(C(=N)N)cc2)cc1 [Pentamidine isethionate]			25	1	Viable
COc1cc([C@@H]2c3cc4c(cc3[C@H](O)[C@H]3COC(=O)[C@H]23)OCO4)cc(OC)c1OC [Podophyllotoxin]				< 0.1	Viable
C=CC1=C(C)c2cc3[nH]c(cc4nc(cc5[nH]c(cc1n2)c(C)c5CCC(=O)O)C(CCC(=O)O)=C4C)c(C)c3C=C [Protoporphyrin IX disodium]			> 50	10	Viable
Oc1ccccc1O [Pyrocatechol]			5	5	Viable
CCN(CC)CCCC(C)Nc1c2ccc(Cl)cc2nc2ccc(OC)cc12 (stereo not drawn) [Quinacrine dihydrochloride]			25	10	Viable
CC1=C(/C=C/C(C)=C/C=C/C(C)=C/C(=O)Nc2ccc(O)cc2)C(C)(C)CCC1 [Retinoic acid p-hydroxyanilide]	5	1			Viable
Cc1nc(-c2ccc(-c3ccc(C(=O)N4CCc5cc6c(cc54)C4(CCN(C)CC4)CO6)cc3)c(C)c2)no1 [SB 224289 hydrochloride]			50	25	
COc1ccc(CCCOC(Cn2ccnc2)c2ccc(OC)cc2)cc1 (stereo not drawn) [SKF 96365]			5	25	Viable
CC(C)(C)c1ccc(C(O)CCCN2CCC(C(O)(c3ccccc3)c3ccccc3)CC2)cc1 (stereo not drawn) [Terfenadine]			10	25	
COc1ccc2c(c1)CC[C@@H]1[C@@H]2CC[C@]2(C)[C@@H](NCCCCCCN3C(=O)CCC3=O)CC[C@@H]12 [U-73343]	5	10			Viable
CC1(C)CCC2=C(O1)c1ccccc1C(=O)C2=O [beta-Lapachone]			5	5	
Vinblastine sulfate salt	<0.1	<0.1			
